Measured values from PMC3703888, “Integration of Different “-omics” Technologies Identifies Inhibition of the IGF1R-Akt-mTOR Signaling Cascade Involved in the Cytotoxic Effect of Shikonin against Leukemia Cells” (Evidence-based Complementary and Alternative Medicine : eCAM, 2013).
pIC50: −log10 of the molar value. Entries after “also recorded” stand apart in the source; their conditions may differ.

Experiments:
p-Akt = assay: FlowCellect PI3K-mTOR signaling cascade assay (flow cytometry), p-Akt; format: cell-based; settings: 24 h
Excerpt: The FlowCellect PI3K-mTOR signaling cascade assay kit (Merck Millipore, Germany) was used to analyze the effect of shikonin on the PI3K-mTOR signaling pathway. The assay is based on two directly conjugated phospho-specific signaling antibodies against phosphorylated Akt and phosphorylated ribosomal S6 protein, which are both important signaling nodes of the mTOR cascade. The phosphorylation of Akt is indicative of the upstream PI3K signaling, marking the cells initiation into proliferation or cell survival. Phosphorylated-ribosomal S6 protein is indicative of downstream mTOR and p70S6K signaling leading to protein translation. The assay was performed according to the manufacture's protocol. Briefly, 1.5 × 10^6 U937 cells were treated with 0.3 μM shikonin or DMSO solvent control and incubated for 24 h. Subsequently, cells were fixed on ice for 20 min using the supplied fixation buffer. After fixation, cells were washed twice and treated with permeabilization buffer on ice for 20 min. After two further washing steps, cells were resuspended in a final volume of 90 μL assay buffer and incubated with 5 μL 20x anti-phospho-ribosomal protein S6 (Ser235) PerCP conjugated monoclonal antibody and 5 μL 20x anti-phospho-Akt1/PKBα (Ser473) Alexa Fluor 488 conjugated monoclonal antibody in the dark on ice for one hour. After antibody incubation, cells were centrifuged and resuspended in 500 μL assay buffer. Subsequently, cells were measured in a LSR-Fortessa FACS analyzer (Becton-Dickinson, Germany) and shikonin fluorescence was compensated for the respective channels. For each sample, 1 × 10^4 cells were counted. The PerCP signal was measured with 488 nm excitation and detected using a 670/30 nm bandpass filter. The Alexa Fluor 488 signal was analyzed with 488 nm excitation and detected using a 530/30 nm bandpass filter. All parameters were plotted on a logarithmic scale. Cytographs were analyzed using FlowJo software (Celeza, Switzerland). All experiments were performed at least in triplicate. Student's t-test was used for statistical analysis.

IGF1R = biological target: T1, IGF1R (Homo sapiens, UniProt P08069); assay: Radiometric protein kinase assay (33PanQinase Activity Assay); format: biochemical; settings: purified IGF1R kinase, nonlinear regression
T1 construct: purchased ProQinase GmbH (Freiburg, Germany)
T1 sequence (P08069 31-1367): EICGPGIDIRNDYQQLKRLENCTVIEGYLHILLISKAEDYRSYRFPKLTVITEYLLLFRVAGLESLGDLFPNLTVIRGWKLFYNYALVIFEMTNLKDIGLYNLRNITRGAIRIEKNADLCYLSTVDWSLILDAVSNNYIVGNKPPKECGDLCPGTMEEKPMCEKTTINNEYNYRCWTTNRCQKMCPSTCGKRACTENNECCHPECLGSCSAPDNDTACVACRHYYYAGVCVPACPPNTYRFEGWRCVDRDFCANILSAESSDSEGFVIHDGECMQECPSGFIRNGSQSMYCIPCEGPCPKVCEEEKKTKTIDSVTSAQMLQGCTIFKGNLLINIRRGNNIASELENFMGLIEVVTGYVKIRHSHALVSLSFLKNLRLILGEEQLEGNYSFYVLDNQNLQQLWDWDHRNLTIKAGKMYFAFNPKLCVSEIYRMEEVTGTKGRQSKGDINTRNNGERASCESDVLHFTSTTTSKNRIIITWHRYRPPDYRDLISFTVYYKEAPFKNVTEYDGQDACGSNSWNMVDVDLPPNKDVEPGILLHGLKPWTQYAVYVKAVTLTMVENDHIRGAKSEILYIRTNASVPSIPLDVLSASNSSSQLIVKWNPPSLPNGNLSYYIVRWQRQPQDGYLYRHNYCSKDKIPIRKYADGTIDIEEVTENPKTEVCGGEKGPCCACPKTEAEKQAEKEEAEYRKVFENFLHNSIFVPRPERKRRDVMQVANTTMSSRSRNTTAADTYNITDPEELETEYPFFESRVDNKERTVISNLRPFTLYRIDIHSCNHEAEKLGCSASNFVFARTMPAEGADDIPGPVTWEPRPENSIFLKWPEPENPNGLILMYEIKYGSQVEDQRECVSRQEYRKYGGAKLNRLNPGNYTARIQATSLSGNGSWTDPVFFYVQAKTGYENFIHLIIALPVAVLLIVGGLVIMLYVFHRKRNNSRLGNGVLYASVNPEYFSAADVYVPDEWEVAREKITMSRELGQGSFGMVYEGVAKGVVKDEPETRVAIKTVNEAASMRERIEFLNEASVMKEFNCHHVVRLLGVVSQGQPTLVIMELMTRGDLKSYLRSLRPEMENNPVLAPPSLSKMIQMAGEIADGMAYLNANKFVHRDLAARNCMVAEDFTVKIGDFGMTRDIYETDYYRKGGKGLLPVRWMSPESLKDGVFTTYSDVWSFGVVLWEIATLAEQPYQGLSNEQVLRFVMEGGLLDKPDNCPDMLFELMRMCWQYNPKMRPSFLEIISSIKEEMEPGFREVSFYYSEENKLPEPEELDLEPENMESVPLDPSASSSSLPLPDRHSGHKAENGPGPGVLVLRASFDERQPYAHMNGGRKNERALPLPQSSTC
Procedure: The kinase inhibition assay was performed by ProQinase GmbH (Freiburg, Germany). Shikonin was provided as 1.85 × 10^−3 M stock solution in DMSO. In the process, shikonin was serially diluted in semi-log steps with 100% DMSO in a 96-well microtiter plate. Directly before use, shikonin was further diluted 1 : 10 with water. Shikonin was tested at 10 final assay concentrations in the range from 1.85 × 10^−5 M to 5.55 × 10^−10 M. The final DMSO concentration in the reaction cocktails was 1% in all cases. A radiometric protein kinase assay (^33PanQinase Activity Assay) was used for measuring the kinase activity of IGF1R. All kinase assays were performed in 96-well FlashPlates from Perkin Elmer (Boston, MA, USA) in a 50 μL reaction volume. […] Incorporation of ^33Pi (counting of “cpm”) was determined with a Wallac MicroBeta scintillation counter (Perkin Elmer). […] Kinase activity was evaluated based on a comparison with experiments containing the complete reaction cocktail but no shikonin. A complete reaction cocktail without kinase served as control for unspecific binding of radioactivity to the plate in the absence of protein kinase but in the presence of shikonin. IC50 values were calculated by nonlinear regression using Prism 5.04 (Graphpad, CA, USA).

[1] = cytograph p-Akt / p-ribosomal protein S6, U937 cells, 0.3 μM

With `CC(C)=CC[C@@H](O)C1=CC(=O)c2c(O)ccc(O)c2C1=O` [shikonin] the “Phosphorylation of Akt” value (p-Akt; U937 cells, 0.3 μM shikonin) was “significantly inhibits; also recorded: significantly decreased”, the “Cells in quadrant Q1” value (p-Akt; [1]) was 27.2% and the “Cells in quadrant Q2” value (p-Akt; [1]) was 61.4%. For the same compound, the “Cells in quadrant Q3” value (p-Akt; [1]) was 1.10%, the “Cells in quadrant Q4” value (p-Akt; [1]) was 10.3% and the pIC50 (IGF1R) was 5.59.
